Reference: patent publication US9346761B2, “Arginine methyltransferase inhibitors and uses thereof” (Epizyme, Inc., priority 2013, dated 2016)
pIC50: −log10 of the molar value.

Assays:
[1] = target: T1, Full-length human PRMT1 isoform 1 (Homo sapiens, UniProt Q99873); experiment: PRMT1 biochemical assay (3H-SAM Flashplate, peptide substrate)
T1 construct: GST-tagged PRMT1; made in house; host or cells: High Five insect cells (baculovirus, pFastBacI)
Source text: (§1) General Materials. S-adenosylmethionine (SAM), S-adenosylhomocysteine (SAH), bicine, Tween20, dimethylsulfoxide (DMSO), bovine skin gelatin (BSG), and Tris(2-carboxyethyl)phosphine hydrochloride solution (TCEP) were purchased from Sigma-Aldrich at the highest level of purity possible. ^3H-SAM was purchase from American Radiolabeled Chemicals with a specific activity of 80 Ci/mmol. 384-well streptavidin Flashplates were purchased from PerkinElmer.
Protein Expression. Recombinant baculovirus were generated according to Bac-to-Bac kit instructions (Life Technologies). […] Infections were carried out at 27° C. for 48 hours, harvested by centrifugation, and stored at −80° C. for purification.
Protein Purification. […] GST-tagged PRMT1 was eluted with 50 mM Tris, 2 mM glutathione, pH 7.8, dialysed in buffer A and concentrated to 1 mg/mL.
(§2) General Procedure for PRMT1 Enzyme Assays on Peptide Substrates. The assays were all performed in a buffer consisting of 20 mM Bicine (pH=7.6), 1 mM TCEP, 0.005% BSG, and 0.002% Tween 20, prepared on the day of use. […] DMSO (1 ul) was added to Columns 11, 12, 23, 24, rows A-H for the maximum signal control and 1 ul of SAH, a known product and inhibitor of PRMT1, was added to columns 11, 12, 23, 24, rows I-P for the minimum signal control. A cocktail (40 ul) containing the PRMT1 enzyme was added by Multidrop Combi (Thermo-Fisher). The compounds were allowed to incubate with PRMT1 for 30 min at room temperature, then a cocktail (10 ul) containing SAM and peptide was added to initiate the reaction (final volume=51 ul). […] The assays were stopped by the addition of non-radiolabeled SAM (10 ul) to a final concentration of 300 uM, which dilutes the ^3H-SAM to a level where its incorporation into the peptide substrate is no longer detectable. 50 ul of the reaction in the 384-well polypropylene plate was then transferred to a 384-well Flashplate and the biotinylated peptides were allowed to bind to the streptavidin surface for at least 1 hour before being washed once with 0.1% Tween20 in a Biotek ELx405 plate washer. The plates were then read in a PerkinElmer TopCount plate reader to measure the quantity of ^3H-labeled peptide bound to the Flashplate surface, measured as disintegrations per minute (dpm) or alternatively, referred to as counts per minute (cpm).
(§3) Where dpm=disintegrations per minute, cmpd=signal in assay well, and min and max are the respective minimum and maximum signal controls.
(§4) Where top and bottom are the normally allowed to float, but may be fixed at 100 or 0 respectively in a 3-parameter fit. The Hill Coefficient normally allowed to float but may also be fixed at 1 in a 3-parameter fit. Y is the % inhibition and X is the compound concentration.

[2] = target: T2, Full-length human PRMT6 (Homo sapiens, UniProt Q96LA8); experiment: PRMT6 biochemical assay (3H-SAM Flashplate, peptide substrate)
T2 construct: Flag-PRMT6-His was eluted with 200 ug/ml FLAG peptide in the same buffer; made in house; host or cells: HEK 293F cells (BacMam virus, pFastBacMam)
T2 sequence (Q96LA8 with tags, fused parts or gaps): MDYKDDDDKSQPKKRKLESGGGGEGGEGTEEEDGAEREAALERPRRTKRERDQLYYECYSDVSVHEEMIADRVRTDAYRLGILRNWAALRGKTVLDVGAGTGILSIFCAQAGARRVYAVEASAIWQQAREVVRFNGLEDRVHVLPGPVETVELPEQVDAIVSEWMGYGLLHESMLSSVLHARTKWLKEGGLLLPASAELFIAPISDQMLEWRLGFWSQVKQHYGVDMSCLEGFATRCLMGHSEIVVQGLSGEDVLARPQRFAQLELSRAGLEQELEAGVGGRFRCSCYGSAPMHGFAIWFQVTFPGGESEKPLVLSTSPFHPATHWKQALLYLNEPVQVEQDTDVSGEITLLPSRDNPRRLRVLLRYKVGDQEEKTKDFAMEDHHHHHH
Source text: as §1, with “(BSG), sodium butyrate” for “(BSG),”
Substrates. Peptide representative of human histone H4 residues 36-50 was synthesized with an N-terminal linker-affinity tag motif and a C-terminal amide cap by 21st Century Biochemicals.
The amplified gene was subcloned into pFastBacMam (Viva Biotech).
Protein Expression. Recombinant baculovirus were generated according to Bac-to-Bac kit instructions (Life Technologies). […] Infections were carried out at 37° C. for 48 hours, harvested by centrifugation, and stored at −80° C. for purification.
Protein Purification. […] Column was washed with 20 mM imidazole in the same buffer and Flag-PRMT6-His was eluted with 150 mM imidazole. Pooled fractions were dialysed against buffer Ni-A and further purified by anti-flag M2 affinity chromatography. Flag-PRMT6-His was eluted with 200 ug/ml FLAG peptide in the same buffer. Pooled fractions were dialysed in 20 mM Tris, 150 mM NaCl, 10% glycerol and 5 mM β-mercaptoethanol, pH 7.8.
as §2, with “PRMT6” for “PRMT1”, “PRMT6,” for “PRMT1,”, “400” for “300”
as §3, §4

[3] = system: mono-methyl arginine in RKO cells; experiment: RKO methylation assay, In Cell Western for mono-methyl arginine and DNA content; format: cell-based; settings: Homo sapiens; In Cell Western, RKO cells, 72 hours, percent activation of mono-methyl arginine signal; read-out: EC30
Source text: RKO adherent cells were purchased from ATCC (American Type Culture Collection), Manassas, Va., USA. DMEM/Glutamax medium, penicillin-streptomycin, heat inactivated fetal bovine serum, 0.05% trypsin and D-PBS were purchased from Life Technologies, Grand Island, N.Y., USA. Odyssey blocking buffer, 800CW goat anti-rabbit IgG (H+L) antibody, and Licor Odyssey infrared scanner were purchased from Licor Biosciences, Lincoln, Nebr., USA. Mono-methyl arginine antibody was purchased from Cell Signaling Technology, Danvers, Mass., USA. Methanol was purchased from VWR, Franklin, Mass., USA. 10% Tween 20 was purchased from KPL, Inc., Gaithersburg, Md., USA. […] was purchased from Biostatus Limited, Leicestershire, UK.
RKO adherent cells were maintained in growth medium (DMEM/Glutamax medium supplemented with 10% v/v heat inactivated fetal bovine serum and 100 units/mL penicillin-streptomycin) and cultured at 37° C. under 5% CO2
Cell Treatment, in Cell Western (ICW) for Detection of Mono-Methyl Arginine and DNA Content. […] Compound (100 nL) from a 96-well source plate was added directly to 384 well cell plate. Plates were incubated at 37° C., 5% CO2 for 72 hours. After three days of incubation, plates were brought to room temperature outside of the incubator for ten minutes and blotted on paper towels to remove cell media. 50 μL of ice cold 100% methanol was added directly to each well and incubated for 30 min at room temperature. After 30 min, plates were transferred to a Biotek EL406 plate washer and washed 2 times with 100 μL per well of wash buffer (1×PBS). Next 60 μL per well of Odyssey blocking buffer (Odyssey Buffer with 0.1% Tween 20 (v/v)) were added to each plate and incubated 1 hour at room temperature. Blocking buffer was removed and 20 μL per well of primary antibody was added (mono-methyl arginine diluted 1:200 in Odyssey buffer with 0.1% Tween 20 (v/v)) and plates were incubated overnight (16 hours) at 4° C. Plates were washed 5 times with 100 μL per well of wash buffer. […] The plates were washed 5 times with 100 μL per well wash buffer then 2 times with 100 μL per well of water. Plates were allowed to dry at room temperature then imaged on the Licor Odyssey machine which measures integrated intensity at 700 nm and 800 nm wavelengths. Both 700 and 800 channels were scanned.
Calculations: First, the ratio for each well was determined by:
Each plate included fourteen control wells of DMSO only treatment (minimum activation) as well as fourteen control wells for maximum activation treated with 20 μM of a reference compound. The average of the ratio values for each control type was calculated and used to determine the percent activation for each test well in the plate. Reference compound was serially diluted three-fold in DMSO for a total of nine test concentrations, beginning at 20 μM. Percent activation was determined and EC30 curves were generated using triplicate wells per concentration of compound.

T1 sequence (Q99873 with tags, fused parts or gaps): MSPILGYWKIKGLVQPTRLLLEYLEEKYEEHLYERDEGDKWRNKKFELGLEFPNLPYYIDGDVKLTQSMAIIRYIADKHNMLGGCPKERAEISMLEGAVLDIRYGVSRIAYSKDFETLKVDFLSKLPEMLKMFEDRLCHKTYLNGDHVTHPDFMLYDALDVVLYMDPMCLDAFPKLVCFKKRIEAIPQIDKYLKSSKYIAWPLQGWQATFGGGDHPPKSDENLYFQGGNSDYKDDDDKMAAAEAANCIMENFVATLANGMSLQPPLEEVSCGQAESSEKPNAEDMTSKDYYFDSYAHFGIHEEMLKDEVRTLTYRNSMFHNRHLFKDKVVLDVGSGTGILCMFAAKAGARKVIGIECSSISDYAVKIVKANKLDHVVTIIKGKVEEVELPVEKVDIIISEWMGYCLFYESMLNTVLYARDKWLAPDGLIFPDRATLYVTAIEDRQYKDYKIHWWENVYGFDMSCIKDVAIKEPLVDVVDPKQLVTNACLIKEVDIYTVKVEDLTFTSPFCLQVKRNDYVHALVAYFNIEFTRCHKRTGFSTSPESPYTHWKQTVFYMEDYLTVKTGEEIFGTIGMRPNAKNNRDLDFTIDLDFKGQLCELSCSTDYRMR

Compound | pIC50 [1] | pIC50 [2] | EC30 [3] [nM]
CNCCN(C)Cc1n[nH]cc1-c1ccc(Oc2cccc(OC)c2)cc1 [Compound 239] | > 7.00 | > 7.00 | < 3000
CNCCN(C)Cc1n[nH]cc1-c1ccc(Oc2ccccc2)c(C(=O)NC)c1 [Compound 240] | > 7.00 | > 7.00 | 3010 to 12000
CNCCN(C)Cc1n[nH]cc1-c1ccc(Oc2ccccc2)c(C(=O)N(C)C)c1 [Compound 241] | > 7.00 | > 7.00 | 3010 to 12000
CNCCN(C)Cc1n[nH]cc1-c1cc(C(C)C)cc(C(C)C)c1 [Compound 242] | 6.00 to 7.00 | 5.52 to 6.00 | > 12000
CNCCN(C)Cc1cn(Cc2ccncc2)nc1-c1ccc(OC(C)C)cc1 [Compound 245] | > 7.00 | 6.00 to 7.00 | < 3000
CN(CCN)Cc1c[nH]nc1-c1ccc(Oc2ccccc2F)cc1 [Compound 259] | > 7.00 | > 7.00 | < 3000
CNCCN(C)Cc1c[nH]nc1-c1cc(OC(C)C)cc(C(C)C)c1 [Compound 260] | > 7.00 | 6.00 to 7.00 | 3010 to 12000
CNCCN(C)Cc1c[nH]nc1-c1ccc(Oc2cccc(C#N)c2)cc1 [Compound 261] | > 7.00 | > 7.00 | < 3000
CNCCN(C)Cc1c[nH]nc1-c1ccc(Oc2cccc(C(C)C)c2)cc1 [Compound 262] | > 7.00 | > 7.00 | < 3000
CNCCN(C)Cc1c[nH]nc1-c1ccc(Oc2cccc(C(=O)NC)c2)cc1 [Compound 263] | > 7.00 | > 7.00 | < 3000
CNCCN(C)Cc1c[nH]nc1-c1cc(Cl)c(OC(C)C)c(Cl)c1 [Compound 265, N^1-((3-(3,5-dichloro-4-isopropoxyphenyl)-1H-pyrazol-4-yl)methyl)-N^1,N^2-dimethylethane-1,2-diamine] | > 7.00 | > 7.00 | < 3000
CNCCN(C)Cc1nn(C)cc1-c1ccc(OCCCOC)cc1 [Compound 266] | 6.00 to 7.00 | > 7.00 | > 12000
CNCCN(C)Cc1n[nH]cc1-c1ccc(Oc2cccc(C#N)c2)cc1 [Compound 267] | > 7.00 | > 7.00 | < 3000
CNCCN(C)Cc1n[nH]cc1-c1ccc(Oc2cccc(C(=O)NC)c2)cc1 [Compound 268] | > 7.00 | > 7.00 | 3010 to 12000
CNCCN(C)Cc1n[nH]cc1-c1ccc(Oc2cccc(F)c2)cc1 [Compound 270] | > 7.00 | > 7.00 | < 3000
CNCCN(C)Cc1n[nH]cc1-c1cc(CC(C)C)cc(CC(C)C)c1 [Compound 271] | > 7.00 | 6.00 to 7.00 | > 12000
CNCCN(C)Cc1n[nH]cc1-c1cc(OC(C)C)cc(C(C)C)c1 [Compound 272] | 6.00 to 7.00 | 5.52 to 6.00 | > 12000
CNCCN(C)Cc1n[nH]cc1-c1cc(Cl)c(OC(C)C)c(Cl)c1 [Compound 273] | > 7.00 | > 7.00 | < 3000
CNCCN(C)Cc1c[nH]nc1-c1ccc(Oc2ccccc2C(=O)NC)cc1 [Compound 274] | > 7.00 | > 7.00 | < 3000
CNCCN(C)Cc1n[nH]c(C)c1-c1ccc(OC(C)C)cc1 [Compound 275] | > 7.00 | > 7.00 | < 3000
CNCCN(C)Cc1c(-c2ccc(OCCCOC)cc2)cnn1C [Compound 276] | < 5.00 | 5.52 to 6.00 | > 12000
CNCCN(C)Cc1n[nH]cc1-c1ccc(Oc2cccc(C(C)C)c2)cc1 [Compound 277] | > 7.00 | > 7.00 | > 12000
CNCCN(C)Cc1n[nH]cc1-c1ccc(Oc2ccccc2F)cc1 [Compound 279, N^1-((4-(4-(2-fluorophenoxy)phenyl)-1H-pyrazol-3-yl)methyl)-N^1,N^2-dimethylethane-1,2-diamine] | > 7.00 | > 7.00 | < 3000
CC(C)Cc1cc(-c2n[nH]cc2CN(C)CCN)ccc1F [Compound 280] | > 7.00 | > 7.00 | < 3000
